In paper PMC6270602 (Molecules, 2013):
Structures can show the parent of a compound that is named as a salt. Where two headings read alike, the source gives them in different places.

Assays:
[1] = biological target: human plasmatic BChE (hBChE; E.C. 3.1.1.8) (Homo sapiens, UniProt P06276); test: biochemical
[2] = biological target: human recombinant AChE (hAChE; E.C. 3.1.1.7) (Homo sapiens, UniProt P22303); test: biochemical; conditions: for IC50: human recombinant AChE, Ellman's method, phosphate buffer pH 7.4, mean of three independent determinations ± SD; for SI (selectivity index for hAChE): ratio of IC50 hBChE towards IC50 hAChE
Chain of human recombinant AChE (hAChE; E.C. 3.1.1.7) (P22303 32-614): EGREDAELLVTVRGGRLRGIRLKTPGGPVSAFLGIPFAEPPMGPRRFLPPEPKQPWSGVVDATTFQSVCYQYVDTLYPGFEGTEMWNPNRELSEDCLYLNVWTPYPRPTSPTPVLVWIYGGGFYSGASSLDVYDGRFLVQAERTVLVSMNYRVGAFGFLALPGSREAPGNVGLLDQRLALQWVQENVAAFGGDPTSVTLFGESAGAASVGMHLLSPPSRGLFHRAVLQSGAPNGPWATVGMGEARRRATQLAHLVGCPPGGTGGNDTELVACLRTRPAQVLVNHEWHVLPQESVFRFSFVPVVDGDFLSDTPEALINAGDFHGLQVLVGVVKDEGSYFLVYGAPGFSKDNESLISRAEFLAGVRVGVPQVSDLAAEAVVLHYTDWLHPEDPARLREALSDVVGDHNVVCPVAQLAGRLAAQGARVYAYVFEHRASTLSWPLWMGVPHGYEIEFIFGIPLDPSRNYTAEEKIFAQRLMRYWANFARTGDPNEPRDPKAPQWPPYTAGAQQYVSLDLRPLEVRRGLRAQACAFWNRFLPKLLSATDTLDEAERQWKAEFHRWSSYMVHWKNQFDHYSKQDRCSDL

[3] = human plasmatic BChE, Ellman's method, phosphate buffer pH 7.4, mean of three independent determinations ± SD, read-out: IC50 (µM) ± SD hBChE

Chain of human plasmatic BChE (hBChE; E.C. 3.1.1.8) (P06276 29-602): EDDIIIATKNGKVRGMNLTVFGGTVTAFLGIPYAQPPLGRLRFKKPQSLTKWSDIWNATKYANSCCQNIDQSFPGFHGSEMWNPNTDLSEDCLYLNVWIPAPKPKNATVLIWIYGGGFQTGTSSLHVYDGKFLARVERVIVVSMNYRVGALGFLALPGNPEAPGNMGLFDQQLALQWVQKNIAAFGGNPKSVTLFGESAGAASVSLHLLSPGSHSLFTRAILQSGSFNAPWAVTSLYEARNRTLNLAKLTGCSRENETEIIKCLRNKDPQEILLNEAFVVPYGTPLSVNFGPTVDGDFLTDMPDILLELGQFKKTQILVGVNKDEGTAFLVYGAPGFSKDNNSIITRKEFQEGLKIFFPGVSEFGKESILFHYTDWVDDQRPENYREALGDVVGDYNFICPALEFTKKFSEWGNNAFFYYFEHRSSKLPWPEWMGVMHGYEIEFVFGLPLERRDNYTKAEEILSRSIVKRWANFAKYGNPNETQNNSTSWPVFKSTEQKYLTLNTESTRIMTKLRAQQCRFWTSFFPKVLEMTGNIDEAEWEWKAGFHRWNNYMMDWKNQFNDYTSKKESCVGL

Row | SMILES | IC50 [1, 3] [µM] | IC50 [2] [µM] | SI (selectivity index for hAChE) [2] | IC50 [1] [µM]
1 | COc1ccc2nc3c(c(NCCCCCCCN)c2c1)CCCC3 [Compound 8, N-(7-Methoxy-1,2,3,4-tetrahydroacridin-9-yl)heptane-1,7-diamine] | 7.26 ± 1.21 | 0.86 ± 0.17 | 8.4 | 
2 | COc1ccc2nc3c(c(NCCNC(=S)NC45CC6CC(CC(C6)C4)C5)c2c1)CCCC3 [Compound 11, 1-Adamantyl-3-(2-(7-methoxy-1,2,3,4-tetrahydroacridin-9-yl-amino)ethyl)thiourea 2,3-dihydroxysuccinate] | 6.02 ± 1.01 | 5.02 ± 0.98 | 1.2 | 
3 | COc1ccc2nc3c(c(NCCCCCCNC(=S)NC45CC6CC(CC(C6)C4)C5)c2c1)CCCC3 [Compound 15] | 0.33 ± 0.05 | 2.09 ± 0.4 | 0.2 | 
4 | COc1ccc2nc3c(c(NCCCCCCN)c2c1)CCCC3 [Compound 7, N-(7-Methoxy-1,2,3,4-tetrahydroacridin-9-yl)hexane-1,6-diamine] | 10.8 ± 1.81 | 0.21 ± 0.04 | 51.6 | 
5 | COc1ccc2nc3c(c(NCCCNC(=S)NC45CC6CC(CC(C6)C4)C5)c2c1)CCCC3 [Compound 12] | 1.39 ± 0.23 | 0.53 ± 0.1 | 2.6 | 
6 | COc1ccc2nc3c(c(NCCCN)c2c1)CCCC3 [Compound 4, N-(7-Methoxy-1,2,3,4-tetrahydroacridin-9-yl)propane-1,3-diamine] | 49.8 ± 8.31 | 1.93 ± 0.38 | 25.8 | 
7 | COc1ccc2nc3c(c(NCCCCCCCCN)c2c1)CCCC3 [Compound 9, N-(7-Methoxy-1,2,3,4-tetrahydroacridin-9-yl)octane-1,8-diamine] | 10.1 ± 1.68 | 0.47 ± 0.09 | 21.4 | 
8 | S=C=NC12CC3CC(CC(C3)C1)C2 [Compound 10, 1-Adamantyl isothiocyanate, reference compound] |  | 25 ± 4.87 | 3.9 | 96.9 ± 16.2
9 | COc1ccc2nc3c(c(NCCCCCCCCNC(=S)NC45CC6CC(CC(C6)C4)C5)c2c1)CCCC3 [Compound 17] | 0.26 ± 0.04 | 1.62 ± 0.31 | 0.2 | 
10 | COc1ccc2nc3c(c(NCCCCCNC(=S)NC45CC6CC(CC(C6)C4)C5)c2c1)CCCC3 [Compound 14] | 0.11 ± 0.02 | 0.47 ± 0.09 | 0.2 | 
11 | COc1ccc2nc3c(c(NCCCCN)c2c1)CCCC3 [Compound 5, N-(7-Methoxy-1,2,3,4-tetrahydroacridin-9-yl)butane-1,4-diamine] | 9.22 ± 1.54 | 1.42 ± 0.28 | 6.5 | 
12 | COc1ccc2nc3c(c(NCCCCCCCNC(=S)NC45CC6CC(CC(C6)C4)C5)c2c1)CCCC3 [Compound 16, 1-Adamantyl-3-(2-(7-methoxy-1,2,3,4-tetrahydroacridin-9-yl-amino)heptyl)thiourea 2,3-dihydroxy-succinate] | 0.15 ± 0.02 | 3.47 ± 0.67 | 0.04 | 
13 | COc1ccc2nc3c(c(NCCCCNC(=S)NC45CC6CC(CC(C6)C4)C5)c2c1)CCCC3 [Compound 13] | 0.98 ± 0.16 | 2.04 ± 0.39 | 0.5 | 
14 | COc1ccc2nc3c(c(NCCCCCN)c2c1)CCCC3 [Compound 6, N-(7-Methoxy-1,2,3,4-tetrahydroacridin-9-yl)pentane-1,5-diamine] | 29.6 ± 4.95 | 3.44 ± 0.67 | 8.6 | 
15 | NC12CC3CC(CC(C3)C1)C2 [amantadine, 1-adamantylamine hydrochloride, reference compound] | 103 ± 17.1 |  |  | 
16 | COc1ccc2nc3c(c(NCCN)c2c1)CCCC3 [Compound 3, N-(7-Methoxy-1,2,3,4-tetrahydroacridin-9-yl)ethane-1,2-diamine] | 64.4 ± 10.8 | 5.32 ± 1.04 | 12.1 | 
